Data taken from ChEMBL document CHEMBL1147525, “Structure-activity relationships of untenone A and its derivatives for inhibition of DNA polymerases” (Bioorg Med Chem Lett, 2004).
pIC50: −log10 of the molar value.

What was measured:
Nucleic Acid [1] = experiment: Inhibitory activity against mammalian DNA polymerase alpha; format: nucleic-acid assay
Nucleic Acid [2] = experiment: Inhibitory activity against mammalian DNA polymerase beta; format: nucleic-acid assay
[3] = target: DNA nucleotidylexotransferase (Homo sapiens, UniProt P04053); experiment: Inhibitory activity against human terminal deoxynucleotidyltransferase
DNA nucleotidylexotransferase, sequence (P04053 whole entry): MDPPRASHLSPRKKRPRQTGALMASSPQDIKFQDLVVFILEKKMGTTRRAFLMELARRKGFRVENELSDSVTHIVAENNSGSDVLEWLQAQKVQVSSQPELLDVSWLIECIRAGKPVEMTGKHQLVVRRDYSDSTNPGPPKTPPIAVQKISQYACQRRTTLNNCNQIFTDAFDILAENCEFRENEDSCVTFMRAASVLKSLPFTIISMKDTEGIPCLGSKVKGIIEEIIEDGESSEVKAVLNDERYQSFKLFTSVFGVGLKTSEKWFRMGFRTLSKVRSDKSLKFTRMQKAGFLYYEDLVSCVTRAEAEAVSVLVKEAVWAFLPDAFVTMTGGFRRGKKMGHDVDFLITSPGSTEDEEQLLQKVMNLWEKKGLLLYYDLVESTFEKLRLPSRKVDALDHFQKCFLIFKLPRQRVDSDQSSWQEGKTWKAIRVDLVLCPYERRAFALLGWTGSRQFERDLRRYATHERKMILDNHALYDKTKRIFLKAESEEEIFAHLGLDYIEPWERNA

pIC50 (Nucleic Acid [1])	pIC50 (Nucleic Acid [2])	pIC50 [3]	SMILES
5.23	5.03	4.74	CCCCCCCCCCCCCCCC[C@]1(OCOC)C=CC(=O)[C@H]1C(=O)OC (racemic)
4.70	4.05	4.08	CCCCCCCCCCCCCCCC[C@H]1C=CC(=O)[C@@H]1C(=O)OC (racemic)
5.37	4.24	4.80	CCCCCCCCCCCCCCCC[C@]1(O)C=CC(=O)[C@H]1C(=O)OC (racemic) [UNTENONE A]

More lines, now with the values behind:

SMILES	pIC50 (Nucleic Acid [1])	pIC50 (Nucleic Acid [2])	pIC50 [3]
CCCCCCCCCCCCCCCCC1=C(C(=O)OC)C(=O)CC1	4.77	3.97	3.89
CCCCCCCCCCCCCCCC[C@]1(O)C=CC(=O)C1 (racemic)	< 3.70	< 3.70	< 3.70
CCCCCCCCCCCCCCCCC1=C[C@H](C(=O)O)[C@H]2CC(C(=O)O)=C(CCCCCCCCCCCCCCCC)[C@H]2[C@H]1C(=O)OC (racemic)	5.72	5.49	5.60
